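Following 48 hours of exposure in 96-well plates, responses at five concentrations were used to interpolate endpoints linearly. GI50 marks 50% less growth.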 The source made the active and inactive calls. Rule as the data show it: active = GI50 up to about 1.1 µM and inactive = higher.
How the values were obtained:
Test in all cases: DTP human tumour cell line panel, 48 h
EKVX = test system: EKVX
CAKI-1 = test system: CAKI-1
SF-268 = test system: SF-268
NCI-H522 = test system: NCI-H522
LOX IMVI = test system: LOX IMVI
A498 = test system: A498
SF-539 = test system: SF-539
A549 = test system: A549
HCC 2998 = test system: HCC 2998
RXF 393 = test system: RXF 393
ACHN = test system: ACHN
SW-620 = test system: SW-620
KM-20L2 = test system: KM-20L2
DMS-114 = test system: DMS-114
SK-MEL-28 = test system: SK-MEL-28
NCI-H460 = test system: NCI-H460
M19-MEL = test system: M19-MEL
SK-OV-3 = test system: SK-OV-3
M14 = test system: M14
OVCAR-5 = test system: OVCAR-5
LXFL 529 = test system: LXFL 529
SN12C = test system: SN12C
KM12 = test system: KM12
NCI-H23 = test system: NCI-H23
DMS-273 = test system: DMS-273
TK-10 = test system: TK-10
RXF 631 = test system: RXF 631
HOP-92 = test system: HOP-92
DLD-1 = test system: DLD-1
OVCAR-4 = test system: OVCAR-4
UACC-62 = test system: UACC-62
786-0 = test system: 786-0
HL-60 = test system: HL-60
SNB-19 = test system: SNB-19
COLO 205 = test system: COLO 205
HCT-15 = test system: HCT-15
NCI-H226 = test system: NCI-H226
K562 = test system: K562
UACC-257 = test system: UACC-257
SNB-78 = test system: SNB-78
HCT-116 = test system: HCT-116
SK-MEL-2 = test system: SK-MEL-2
U-251 = test system: U-251
CCRF-CEM = test system: CCRF-CEM
HT-29 = test system: HT-29
UO-31 = test system: UO-31
OVCAR-8 = test system: OVCAR-8
RPMI-8226 = test system: RPMI-8226
SF-295 = test system: SF-295
MOLT-4 = test system: MOLT-4
XF498 = test system: XF498
SNB-75 = test system: SNB-75
HOP-62 = test system: HOP-62
SK-MEL-5 = test system: SK-MEL-5
IGROV-1 = test system: IGROV-1
Malme-3M = test system: Malme-3M
OVCAR-3 = test system: OVCAR-3

COC(=O)C1(C(=O)OC)CC2c3c(c4ccccc4n3C)CC(C1=O)N2Cc1ccccc1 (configuration not stated)
GI50 (EKVX): > 100 µM (inactive) | GI50 (CAKI-1): > 100 µM (inactive) | GI50 (SF-268): > 100 µM (inactive) | GI50 (NCI-H522): 57.3 µM (inactive) | GI50 (LOX IMVI): > 100 µM (inactive) | GI50 (A498): > 100 µM (inactive) | GI50 (SF-539): > 100 µM (inactive) | GI50 (A549): > 100 µM (inactive) | GI50 (HCC 2998): > 100 µM (inactive) | GI50 (RXF 393): 29.8 µM (inactive) | GI50 (ACHN): > 100 µM (inactive) | GI50 (SW-620): > 100 µM (inactive) | GI50 (KM-20L2): > 100 µM (inactive) | GI50 (DMS-114): > 100 µM (inactive) | GI50 (SK-MEL-28): 80 µM (inactive) | GI50 (NCI-H460): > 100 µM (inactive) | GI50 (M19-MEL): > 100 µM (inactive) | GI50 (SK-OV-3): > 100 µM (inactive) | GI50 (M14): > 100 µM (inactive) | GI50 (OVCAR-5): > 100 µM (inactive) | GI50 (LXFL 529): > 100 µM (inactive) | GI50 (SN12C): > 100 µM (inactive) | GI50 (KM12): > 100 µM (inactive) | GI50 (NCI-H23): > 100 µM (inactive) | GI50 (DMS-273): > 100 µM (inactive) | GI50 (TK-10): > 100 µM (inactive) | GI50 (RXF 631): > 100 µM (inactive) | GI50 (HOP-92): > 100 µM (inactive) | GI50 (DLD-1): > 100 µM (inactive) | GI50 (OVCAR-4): 76.6 µM (inactive) | GI50 (UACC-62): 89.9 µM (inactive) | GI50 (786-0): > 100 µM (inactive) | GI50 (HL-60): 96.8 µM (inactive) | GI50 (SNB-19): > 100 µM (inactive) | GI50 (COLO 205): > 100 µM (inactive) | GI50 (HCT-15): > 100 µM | GI50 (NCI-H226): > 100 µM (inactive) | GI50 (K562): > 100 µM (inactive) | GI50 (UACC-257): > 100 µM (inactive) | GI50 (SNB-78): > 100 µM (inactive) | GI50 (HCT-116): > 100 µM (inactive) | GI50 (SK-MEL-2): > 100 µM (inactive) | GI50 (U-251): > 100 µM (inactive) | GI50 (CCRF-CEM): > 100 µM (inactive) | GI50 (HT-29): > 100 µM (inactive) | GI50 (UO-31): > 100 µM (inactive) | GI50 (OVCAR-8): > 100 µM (inactive) | GI50 (RPMI-8226): 61.1 µM (inactive) | GI50 (SF-295): > 100 µM (inactive) | GI50 (MOLT-4): > 100 µM (inactive) | GI50 (XF498): > 100 µM (inactive) | GI50 (SNB-75): 15.4 µM (inactive) | GI50 (HOP-62): > 100 µM (inactive) | GI50 (SK-MEL-5): > 100 µM (inactive) | GI50 (IGROV-1): > 100 µM (inactive) | GI50 (Malme-3M): > 100 µM (inactive) | GI50 (OVCAR-3): > 100 µM (inactive)

From ChEMBL document CHEMBL1201862, “PubChem BioAssay data set” (2004)
